Data reported in US11795439B2, “Methods for reprogramming cells and uses thereof” (GENESIS TECHNOLOGIES LIMITED, priority 2009, dated 2023).

Assays:
Assay type in all cases: cell-based, human
fibroblast cells = test: Immunohistochemistry (Cellomics) % Sox2 and nestin positive cells with or without cytochalasin B (Table 4); conditions: disrupting the cell cytoskeleton
Procedure: Cells were fixed with a 4% formaldehyde/PBS solution for 10 min at room temperature and subsequently permeabilized for 5 min with 0.1% Triton X-100™ in 4% formaldehyde/PBS. After two brief washes with PBS, unspecific antibody binding was blocked by a 30 min incubation with 5% normal goat serum in PBS. Then primary antibodies were added in 5% normal goat serum/PBS as follows: Mouse anti-Nestin (1:100, BD) as an […] present in neural stem cells and mouse anti-NCAM (1:100, Neuromics) as neuronal adhesion molecule. After a 2 h incubation the cells were washed 4 times for 5 min each with 0.1% Tween™/PBS. Appropriate fluorescence-tagged secondary antibody was used for visualization; Goat anti-mouse 546 (1:200, invitrogen) prepared in 5% normal goat serum/PBS was used. […] Fluorescence images were taken with a Cellomics™ ArrayScan HCS Reader microscopy system. To determine an estimate of the percentage of cells adopting neuronal or glial phenotypes, random fields were selected and for each field the total number of cells (as determined by counting Hoechst stained nuclei) and the total number of cells positive for neuronal or glial markers were determined.
Various combinations of neurogenic regulators and cytokines for epigenetic modifications were tested to ascertain their effect on reprogramming efficiency. […] Cells were then analyzed for neural stem cell markers. […]

[1] = tested on: fibroblast cells within CDM; test: Trans-differentiation of cells within CDM by cytochalasin B, VPA, 5-Azacytidine, immunohistochemistry; conditions: Day 14 CDM; cytochalasin B and NbActive medium only
Procedure: Fibroblast cells were cultured in DMEM medium in the presence of 10% FCS as described in Example I, followed by seeding onto 12-well plates pre-coated with laminin ([…]) at a concentration of 2×10^6 cells/ml in defined CDM Medium consisting of a 3:1 ratio of Dulbecco's modified Eagle medium (DMEM, high glucose (4.5 g/L) with L-glutamine and sodium pyruvate) and Ham's F-12 medium supplemented with the following components: EGF (4.2×10^−10M), bFGF (2.8×10^−10M), ITS (8.6×10^−5M), dexamethasone (1.0×10^−7M), L-ascorbic acid phosphate magnesium salt n-hydrate (3.2×10^−4M), L-3,3′,5-triiodothyronine (2.0×10^−10M), ethanolamine (10^−4M), GlutaMAX™ (4×10^−3M), glutathione (3.3×10^−6M), and 1% penicillin/streptomycin/amphotericin B. By culturing the fibroblast cells at hyperconfluent density in this completely chemically defined medium causes them to enter a high synthetic phase with a slow-down in proliferation, leading to the production of a living tissue equivalent (LTE) consisting of multiple layers of fibroblasts within de novo 3D extracellular matrix (CDM) that is completely synthesized by the fibroblasts themselves.
Day 14 CDM samples were treated with cytochalsin B (10 μg/ml, Calbiochem), with the concentration of cytochalsin B reduced from 10 μg/ml to 0 μg/ml (none) over 5 days while at the same time switching the medium from CDM Medium to NbActive medium. […]

HFFs = test: Sox2 immunohistochemistry with or without Noggin; conditions: inhibiting the BMP signaling pathway
Procedure: This study was designed to evaluate the role of Noggin in the process of de-differentiation of HFFs towards NSLCs. HFFs were cultured and treated with cytochalasin B as described in Example III. After two days of treatment, cells were transfected by Nucleofection as described in Example II with the constructed vector Msi1/Ngn2. Briefly, after preparing the cells, they were mixed with 2 μg of total DNA (Msi1/Ngn2) and were co-transfect with MBD2 ([…]), by the Amaxa's Nucleofector™ according to the manufacturer's protocol. The samples were then transferred into a Laminin (10 μg/ml, Sigma) coated culture plate and cultured in the presence of Neural Proliferation Medium (NeuroCult™ proliferation Kit, StemCell Technologies) with recombinant hFGF (20 ng/ml, Peprotech), recombinant hEGF (20 ng/ml, Peprotech), and with or without the presence of Noggin (20 ng/ml, Peprotech). Samples were collected at different time points (1, 3, 4, 6, and 8 days) to analyze neuronal gene expression by RT-PCR and protein expression levels by immunohistochemistry.
Fluorescent imunohistochemical staining was performed on samples after 4 days of transfection as previously described in Example I. Transfected cells were stained and analyzed for expression of Sox2, the percentage of Sox2 was 33.3±1.00% in the presence of Noggin compared to 27.5±0.50% without the presence of noggin at day 4. […]

Row | Molecule | effect on reprogramming (fibroblast cells) | βIII-tubulin positive cells [1] | effect on reprogramming (HFFs)
1 | C=C1[C@@H](C)[C@H]2[C@H](Cc3ccccc3)NC(=O)[C@]23OC(=O)/C=C/[C@H](O)CCC[C@@H](C)C/C=C/[C@H]3[C@@H]1O [Cytochalasin B] | significantly enhanced reprogramming, but had no reprogramming effect on its own | failed to detect | –
2 | Noggin: Noggin (20 ng/ml, Peprotech), inhibits the BMP signaling pathway (protein, UniProt Q13253 28-232, looked up) Noggin: QHYLHIRPAPSDNLPLVDLIEHPDPIFDPKEKDLNETLLRSLLGGHYDPGFMATSPPEDRPGGGGGAAGGAEDLAELDQLLRQRPSGAMPSEIKGLEFSEGLAQGKKQRLSKKLRRKLQMWLWSQTFCPVLYAWNDLGSRFWPRYVKVGSCFSKRSCSVPEGMVCKPSKSVHLTVLRWRCQRRGGQRCGWIPIQYPIISECKCSC | – | – | enhanced reprogramming, but had no reprogramming effect on its own
